Consider 6 compounds from ChEMBL document CHEMBL1201862, “PubChem BioAssay data set” (2004).

Data set [1] can be described thus: restored growth of temperature-sensitive Burl-1 yeast – whole organism, S. cerevisiae, Burl-1 ts mutant, luminescence, counter-screen for SUMOylation pathway inhibitor project, dose response (AID 463199). Format: functional.
Data set [2] addresses T1, Cytochrome P450 1A2 (Homo sapiens, UniProt P05177).
T1 sequence (P05177 whole entry): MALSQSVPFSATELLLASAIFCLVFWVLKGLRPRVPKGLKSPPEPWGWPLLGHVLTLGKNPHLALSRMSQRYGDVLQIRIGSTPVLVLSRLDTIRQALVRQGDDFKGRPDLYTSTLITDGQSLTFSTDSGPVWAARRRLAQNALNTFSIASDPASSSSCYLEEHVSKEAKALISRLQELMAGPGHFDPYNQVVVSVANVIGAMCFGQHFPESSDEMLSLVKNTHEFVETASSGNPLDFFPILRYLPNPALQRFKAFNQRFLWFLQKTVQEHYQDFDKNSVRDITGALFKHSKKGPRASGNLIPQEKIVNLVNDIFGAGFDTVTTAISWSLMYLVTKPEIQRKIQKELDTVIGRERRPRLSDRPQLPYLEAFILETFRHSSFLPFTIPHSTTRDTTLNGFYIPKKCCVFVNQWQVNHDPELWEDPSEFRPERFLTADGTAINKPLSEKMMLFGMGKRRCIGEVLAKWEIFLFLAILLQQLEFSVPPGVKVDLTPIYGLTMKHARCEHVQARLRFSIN

Data set [3] addresses Cytochrome P450 2C19 (Homo sapiens, UniProt P33261). As to the kind of experiment: Cytochrome panel assay with activity outcomes. Panel member name: p450-cyp2c19 Compounds with AC50 equal or less than 10 uM are considered active. Format: functional.
Data set [4] in a line: Luminescence Cell-Based Dose Retest to Confirm Inhibitors of Cancer Stem Cells. [Related pubchem assays (depositor defined):AID2717, AID2721]. Format: functional. The settings on record: Homo sapiens.
The nature of data set [5]: loss of viability in HepG2 cells – cell-based, CellTiter-Glo, cherry-picked, cytotoxicity control for Shn3 inhibitor project, dose response (AID 624134). Format: functional.
Data set [6] has as its target E3 ubiquitin-protein ligase Mdm2 (Homo sapiens, UniProt Q00987). As to the kind of experiment: MDM2-luc reporter signal enhancers, multi-concentration potency testing, MDM2 ubiquitin-protein ligase inhibitor program, whole-cell format, luminescence detection, 384-well microplate (AID 1394).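 Also: MDM2 E3 inhibitors raise luminescence so EC50 is for signal enhancement.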 It is filed as functional.
The nature of data set [7]: viability loss of HMLE_sh_eGFP cells – cell-based, luminescence, counter-screen for HMLE_sh_ECad selective toxicity project, dose response (AID 463074).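 Also: HMLE human mammary epithelial cells expressing control shRNA against eGFP.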 It is filed as functional, Homo sapiens.
The nature of data set [8]: non-specific 3'UTR reporter inhibition in Clone20-Shn3RL – cell-based, Renilla luciferase, cherry-picked, counter-screen for Shn3 inhibitor project, dose response (AID 624133). It is filed as functional.
The target of data set [9] is Dual specificity protein phosphatase 3 (Homo sapiens, UniProt P51452). The data set is described as follows: SAR VHR1 Fluorescent Assay for In Vitro dose response studies Set 3. [Related pubchem assays (depositor defined):AID1654, AID1661, AID1878]. It is filed as functional.
Chain of Dual specificity protein phosphatase 3 (P51452 whole entry): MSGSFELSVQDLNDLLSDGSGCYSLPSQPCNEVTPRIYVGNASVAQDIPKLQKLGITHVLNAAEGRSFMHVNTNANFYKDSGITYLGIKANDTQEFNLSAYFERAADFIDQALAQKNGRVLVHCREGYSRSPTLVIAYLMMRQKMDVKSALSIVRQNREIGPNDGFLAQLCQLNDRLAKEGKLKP
The nature of data set [10]: Late-stage probe development counterscreen for inhibitors of the Hepatitis C Virus non-structural protein 3 helicase (NS3): luminescence-based cell-based dose response assay to determine whether compounds that inhibit replication of HCV RNA replicon are cytotoxic. [Related pubchem assays (depositor defined):AID1800, AID1830, AID1845, AID1943, AID1945, AID2172, AID2173, AID2474, AID2476]. It is filed as functional.

Data set [11] deals with Cytochrome P450 2C9 (Homo sapiens, UniProt P11712).
Chain of Cytochrome P450 2C9 (P11712 whole entry): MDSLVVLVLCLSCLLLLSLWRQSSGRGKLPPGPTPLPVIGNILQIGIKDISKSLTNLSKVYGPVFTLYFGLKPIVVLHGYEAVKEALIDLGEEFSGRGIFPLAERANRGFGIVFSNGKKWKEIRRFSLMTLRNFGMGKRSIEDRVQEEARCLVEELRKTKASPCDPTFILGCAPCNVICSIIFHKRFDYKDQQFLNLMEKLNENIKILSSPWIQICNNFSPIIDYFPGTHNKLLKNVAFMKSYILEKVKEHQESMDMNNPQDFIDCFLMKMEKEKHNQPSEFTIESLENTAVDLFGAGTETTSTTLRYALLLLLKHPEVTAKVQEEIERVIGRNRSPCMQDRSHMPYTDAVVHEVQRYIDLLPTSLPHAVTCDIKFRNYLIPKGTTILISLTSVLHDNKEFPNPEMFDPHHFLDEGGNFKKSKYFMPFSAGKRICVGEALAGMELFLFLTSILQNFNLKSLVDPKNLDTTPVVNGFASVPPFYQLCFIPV
The subject of data set [12] is MDCK. As to the kind of experiment: antiviral activity against H1N1 influenza, dose response, cell-based, strain KY136 (AID 540257). Format: functional. The settings on record: Canis lupus familiaris.
The target in data set [13] is T2, Protein RecA (Mycobacterium tuberculosis, UniProt P9WHJ3).
T2 sequence (P9WHJ3 whole entry): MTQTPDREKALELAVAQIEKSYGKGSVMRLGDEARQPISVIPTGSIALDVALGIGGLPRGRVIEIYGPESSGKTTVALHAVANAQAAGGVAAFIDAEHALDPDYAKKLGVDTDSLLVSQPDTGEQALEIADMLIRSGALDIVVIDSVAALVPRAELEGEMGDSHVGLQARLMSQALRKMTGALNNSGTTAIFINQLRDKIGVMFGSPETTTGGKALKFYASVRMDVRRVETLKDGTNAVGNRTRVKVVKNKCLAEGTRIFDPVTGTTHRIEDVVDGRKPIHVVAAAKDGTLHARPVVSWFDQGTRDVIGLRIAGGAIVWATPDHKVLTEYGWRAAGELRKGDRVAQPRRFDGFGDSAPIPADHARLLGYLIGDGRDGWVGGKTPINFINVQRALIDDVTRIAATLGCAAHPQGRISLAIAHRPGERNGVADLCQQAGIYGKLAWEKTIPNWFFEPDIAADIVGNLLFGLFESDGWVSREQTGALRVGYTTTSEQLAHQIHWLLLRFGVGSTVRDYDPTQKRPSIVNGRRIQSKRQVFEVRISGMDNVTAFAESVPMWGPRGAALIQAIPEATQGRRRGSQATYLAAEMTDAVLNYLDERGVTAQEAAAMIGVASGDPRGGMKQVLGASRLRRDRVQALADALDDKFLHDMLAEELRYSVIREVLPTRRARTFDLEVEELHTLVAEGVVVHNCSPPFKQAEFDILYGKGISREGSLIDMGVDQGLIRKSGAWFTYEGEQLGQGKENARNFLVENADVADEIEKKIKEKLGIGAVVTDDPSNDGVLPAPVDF
The data set is described as follows: Fluorescence Cell-Free Homogeneous Dose Retest to Identify Inhibitors of RecA-Intein Splicing Activity. [Related pubchem assays (depositor defined):AID2097, AID2223, AID489010, AID492950]. Format: functional.

For data set [14], the target named is T3, Replicative DNA helicase DnaB (Mycobacterium tuberculosis, UniProt P9WMR3).
T3 sequence (P9WMR3 whole entry): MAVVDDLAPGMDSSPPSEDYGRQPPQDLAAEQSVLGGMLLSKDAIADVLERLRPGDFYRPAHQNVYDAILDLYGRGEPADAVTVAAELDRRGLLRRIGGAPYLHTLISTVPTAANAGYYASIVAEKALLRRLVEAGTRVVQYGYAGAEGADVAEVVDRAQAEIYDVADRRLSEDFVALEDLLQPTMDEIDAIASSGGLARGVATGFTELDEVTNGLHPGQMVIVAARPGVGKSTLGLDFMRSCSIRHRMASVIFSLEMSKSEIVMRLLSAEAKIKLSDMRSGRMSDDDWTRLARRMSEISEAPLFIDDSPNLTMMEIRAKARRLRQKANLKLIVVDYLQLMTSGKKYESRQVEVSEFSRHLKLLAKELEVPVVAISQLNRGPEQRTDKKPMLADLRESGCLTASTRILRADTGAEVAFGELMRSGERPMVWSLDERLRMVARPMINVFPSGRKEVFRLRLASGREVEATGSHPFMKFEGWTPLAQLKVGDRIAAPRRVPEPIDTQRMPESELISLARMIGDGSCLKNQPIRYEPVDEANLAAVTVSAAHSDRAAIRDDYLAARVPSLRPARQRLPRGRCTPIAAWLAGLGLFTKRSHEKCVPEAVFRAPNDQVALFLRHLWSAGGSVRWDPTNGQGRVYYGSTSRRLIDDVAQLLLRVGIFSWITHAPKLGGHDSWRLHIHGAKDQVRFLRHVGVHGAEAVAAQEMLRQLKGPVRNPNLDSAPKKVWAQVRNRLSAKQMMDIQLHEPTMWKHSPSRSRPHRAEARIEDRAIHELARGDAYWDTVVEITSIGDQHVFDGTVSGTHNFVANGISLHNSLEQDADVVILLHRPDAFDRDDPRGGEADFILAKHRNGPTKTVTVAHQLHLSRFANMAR
As to the kind of experiment: DnaB intein splicing inhibitors, dose response, biochemical, cell-free fluorescence (AID 449749). It is filed as functional.

For data set [15], the target named is Nonstructural protein 1 (Influenza A virus, UniProt Q194T2). It is filed as functional, Influenza A virus (A/California/07/2009(H1N1)).
Chain of Nonstructural protein 1 (Q194T2 whole entry, the tested form may be a part): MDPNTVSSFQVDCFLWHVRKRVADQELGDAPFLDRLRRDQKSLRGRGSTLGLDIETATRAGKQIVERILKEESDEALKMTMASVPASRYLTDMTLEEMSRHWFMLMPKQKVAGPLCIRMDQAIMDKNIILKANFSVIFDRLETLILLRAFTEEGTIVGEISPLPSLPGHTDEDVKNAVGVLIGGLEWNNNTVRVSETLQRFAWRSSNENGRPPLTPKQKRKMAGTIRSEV
Data set [16] has as its target Nucleotide-binding oligomerization domain-containing protein 2 (Homo sapiens, UniProt Q9HC29). As to the kind of experiment: inhibition of NOD2-driven NF-kB reporter – cell-based, luminescence, uHTS, HEK293 (AID 1566). Format: functional.
Data set [17] has as its system HEK293. As to the kind of experiment: cells. The note with it: Homo sapiens. It is filed as functional, cell-based.
For data set [18], the system named is HEK293. The data set is described as follows: NOD2 signaling inhibitors in MDP-stimulated cells, cell-based, uHTS, luminescence (AID 2001). Format: functional. The settings on record: Homo sapiens.
In data set [19] the target is T4, Voltage-gated N-type calcium channel alpha-1B subunit/Amyloid beta A4 precursor protein-binding family A member 1 (Homo sapiens, UniProt Q00975+Q02410). It is filed as protein assay.
T4 sequence (Q00975 whole entry): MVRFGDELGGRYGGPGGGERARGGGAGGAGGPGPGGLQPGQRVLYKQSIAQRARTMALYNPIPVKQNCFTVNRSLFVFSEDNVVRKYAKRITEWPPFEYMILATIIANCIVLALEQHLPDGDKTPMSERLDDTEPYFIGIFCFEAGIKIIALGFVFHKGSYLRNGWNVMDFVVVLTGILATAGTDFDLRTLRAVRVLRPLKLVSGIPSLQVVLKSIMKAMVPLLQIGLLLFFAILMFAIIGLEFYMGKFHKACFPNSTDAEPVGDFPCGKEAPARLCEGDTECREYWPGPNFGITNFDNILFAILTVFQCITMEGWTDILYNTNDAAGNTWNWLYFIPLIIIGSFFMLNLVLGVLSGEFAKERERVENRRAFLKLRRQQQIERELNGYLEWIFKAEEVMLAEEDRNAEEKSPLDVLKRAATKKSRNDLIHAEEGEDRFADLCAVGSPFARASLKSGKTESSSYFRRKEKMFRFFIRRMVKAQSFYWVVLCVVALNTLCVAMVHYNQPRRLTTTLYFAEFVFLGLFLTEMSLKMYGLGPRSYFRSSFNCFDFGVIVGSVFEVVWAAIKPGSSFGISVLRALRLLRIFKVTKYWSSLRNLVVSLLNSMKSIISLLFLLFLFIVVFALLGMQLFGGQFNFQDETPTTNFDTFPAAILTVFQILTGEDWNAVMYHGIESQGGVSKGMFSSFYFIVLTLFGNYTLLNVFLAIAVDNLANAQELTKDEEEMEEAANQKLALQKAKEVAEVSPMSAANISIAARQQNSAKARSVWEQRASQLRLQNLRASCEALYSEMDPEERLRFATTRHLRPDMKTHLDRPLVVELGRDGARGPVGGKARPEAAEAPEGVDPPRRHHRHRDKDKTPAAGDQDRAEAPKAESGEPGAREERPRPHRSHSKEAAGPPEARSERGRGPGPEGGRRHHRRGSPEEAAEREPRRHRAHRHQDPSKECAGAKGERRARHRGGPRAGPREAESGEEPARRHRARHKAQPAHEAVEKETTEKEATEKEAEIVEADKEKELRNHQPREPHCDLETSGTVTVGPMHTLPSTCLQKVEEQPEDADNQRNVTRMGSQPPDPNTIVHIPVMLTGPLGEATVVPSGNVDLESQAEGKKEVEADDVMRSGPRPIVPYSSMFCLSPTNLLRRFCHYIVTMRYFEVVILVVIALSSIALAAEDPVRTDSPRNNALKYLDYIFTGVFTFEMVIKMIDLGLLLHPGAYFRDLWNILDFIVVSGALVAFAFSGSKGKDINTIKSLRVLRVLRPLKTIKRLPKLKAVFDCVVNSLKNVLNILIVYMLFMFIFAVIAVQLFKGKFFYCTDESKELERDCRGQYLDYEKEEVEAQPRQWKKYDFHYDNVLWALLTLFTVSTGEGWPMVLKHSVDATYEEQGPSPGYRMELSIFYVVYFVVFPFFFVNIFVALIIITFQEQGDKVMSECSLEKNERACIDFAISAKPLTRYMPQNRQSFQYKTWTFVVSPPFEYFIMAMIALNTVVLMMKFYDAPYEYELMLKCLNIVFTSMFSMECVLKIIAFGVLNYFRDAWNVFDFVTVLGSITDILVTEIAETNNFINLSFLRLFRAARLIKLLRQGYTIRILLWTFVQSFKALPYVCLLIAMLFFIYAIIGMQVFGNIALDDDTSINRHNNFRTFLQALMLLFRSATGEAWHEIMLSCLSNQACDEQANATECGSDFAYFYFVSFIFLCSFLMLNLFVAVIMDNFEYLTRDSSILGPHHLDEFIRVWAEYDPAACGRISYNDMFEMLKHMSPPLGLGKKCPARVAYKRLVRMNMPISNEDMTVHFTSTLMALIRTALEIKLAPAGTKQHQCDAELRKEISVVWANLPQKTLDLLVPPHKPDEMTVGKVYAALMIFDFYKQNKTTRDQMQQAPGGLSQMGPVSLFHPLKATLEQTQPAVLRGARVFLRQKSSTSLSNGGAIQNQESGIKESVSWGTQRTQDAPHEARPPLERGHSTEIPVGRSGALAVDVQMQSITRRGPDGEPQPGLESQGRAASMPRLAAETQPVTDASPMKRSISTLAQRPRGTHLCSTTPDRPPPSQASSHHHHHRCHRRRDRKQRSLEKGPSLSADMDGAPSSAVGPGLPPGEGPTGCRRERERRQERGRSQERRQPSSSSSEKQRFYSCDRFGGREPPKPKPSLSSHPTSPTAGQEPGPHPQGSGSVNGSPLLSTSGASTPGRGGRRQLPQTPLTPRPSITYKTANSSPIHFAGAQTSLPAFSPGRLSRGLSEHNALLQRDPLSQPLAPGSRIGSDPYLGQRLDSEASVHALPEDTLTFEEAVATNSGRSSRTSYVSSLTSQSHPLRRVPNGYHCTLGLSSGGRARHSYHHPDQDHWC
T4 sequence (Q02410 whole entry): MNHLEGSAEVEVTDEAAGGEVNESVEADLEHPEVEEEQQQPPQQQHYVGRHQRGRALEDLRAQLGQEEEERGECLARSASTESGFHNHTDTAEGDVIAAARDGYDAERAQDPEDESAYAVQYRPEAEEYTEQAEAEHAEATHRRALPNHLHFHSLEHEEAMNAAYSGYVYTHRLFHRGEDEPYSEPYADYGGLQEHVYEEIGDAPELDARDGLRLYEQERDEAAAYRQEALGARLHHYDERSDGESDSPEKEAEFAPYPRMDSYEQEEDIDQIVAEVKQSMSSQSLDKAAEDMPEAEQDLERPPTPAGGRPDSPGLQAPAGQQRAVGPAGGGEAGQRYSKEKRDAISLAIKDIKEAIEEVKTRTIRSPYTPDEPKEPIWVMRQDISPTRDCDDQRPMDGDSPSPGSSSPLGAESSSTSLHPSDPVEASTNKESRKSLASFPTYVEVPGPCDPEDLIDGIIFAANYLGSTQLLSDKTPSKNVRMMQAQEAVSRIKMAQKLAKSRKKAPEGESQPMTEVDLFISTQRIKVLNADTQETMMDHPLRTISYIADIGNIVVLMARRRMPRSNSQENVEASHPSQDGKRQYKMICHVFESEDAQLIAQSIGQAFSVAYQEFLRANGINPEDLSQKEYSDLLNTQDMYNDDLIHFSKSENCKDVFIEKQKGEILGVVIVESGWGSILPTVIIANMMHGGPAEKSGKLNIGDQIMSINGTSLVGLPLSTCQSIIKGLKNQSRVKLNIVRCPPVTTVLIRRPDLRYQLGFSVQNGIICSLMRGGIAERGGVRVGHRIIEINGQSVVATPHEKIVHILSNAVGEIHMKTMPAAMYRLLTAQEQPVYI
The subject of data set [20] is HEK293. The data set is described as follows: inhibition of NOD1-driven NF-kB reporter – cell-based, luminescence, uHTS, primary screen (AID 1578). The note with it: Homo sapiens. Format: functional.
In data set [21] the target is T5, Apoptotic protease-activating factor 1 (Homo sapiens, UniProt O14727).
T5 sequence (O14727 whole entry): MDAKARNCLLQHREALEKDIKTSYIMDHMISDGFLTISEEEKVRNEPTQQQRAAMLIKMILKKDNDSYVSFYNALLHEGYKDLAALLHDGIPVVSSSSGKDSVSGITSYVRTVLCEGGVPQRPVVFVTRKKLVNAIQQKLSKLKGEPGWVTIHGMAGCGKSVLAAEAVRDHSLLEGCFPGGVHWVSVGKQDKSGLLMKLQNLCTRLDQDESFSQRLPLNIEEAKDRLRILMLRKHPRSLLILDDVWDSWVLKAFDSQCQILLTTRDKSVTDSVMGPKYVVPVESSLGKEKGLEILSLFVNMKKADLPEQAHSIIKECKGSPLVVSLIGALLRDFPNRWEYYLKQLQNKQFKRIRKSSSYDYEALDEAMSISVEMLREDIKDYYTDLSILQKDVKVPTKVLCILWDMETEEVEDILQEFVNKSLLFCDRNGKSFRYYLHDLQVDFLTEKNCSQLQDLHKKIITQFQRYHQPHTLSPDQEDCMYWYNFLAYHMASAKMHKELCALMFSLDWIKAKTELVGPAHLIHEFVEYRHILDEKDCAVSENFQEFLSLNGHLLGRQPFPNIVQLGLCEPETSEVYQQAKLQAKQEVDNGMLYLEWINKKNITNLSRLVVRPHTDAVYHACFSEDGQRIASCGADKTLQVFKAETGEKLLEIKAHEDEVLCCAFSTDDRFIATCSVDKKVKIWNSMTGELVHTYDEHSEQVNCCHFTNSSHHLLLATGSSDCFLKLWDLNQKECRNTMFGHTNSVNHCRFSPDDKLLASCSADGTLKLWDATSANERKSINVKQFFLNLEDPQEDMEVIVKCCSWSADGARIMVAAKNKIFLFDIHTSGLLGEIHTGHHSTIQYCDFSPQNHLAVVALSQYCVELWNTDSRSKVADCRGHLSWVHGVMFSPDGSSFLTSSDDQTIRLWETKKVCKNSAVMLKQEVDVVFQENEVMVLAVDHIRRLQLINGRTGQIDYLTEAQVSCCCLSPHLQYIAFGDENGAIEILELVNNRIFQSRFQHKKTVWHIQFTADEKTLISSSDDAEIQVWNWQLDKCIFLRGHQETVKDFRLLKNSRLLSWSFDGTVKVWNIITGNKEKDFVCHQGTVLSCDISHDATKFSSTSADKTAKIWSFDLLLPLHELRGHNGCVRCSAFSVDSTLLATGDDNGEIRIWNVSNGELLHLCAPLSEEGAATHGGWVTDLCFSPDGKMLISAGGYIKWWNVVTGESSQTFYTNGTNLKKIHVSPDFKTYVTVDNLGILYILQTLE
It is filed as functional.

The target in data set [22] is T4, Voltage-gated N-type calcium channel alpha-1B subunit/Amyloid beta A4 precursor protein-binding family A member 1. Format: protein assay. This is another data set of the same source.
The test system of data set [23] is HEK293. The data set is described as follows: cells. The note with it: Homo sapiens. Format: functional, cell-based. This is another data set of the same source.
Data set [24] deals with HEK293. As to the kind of experiment: cells. Format: functional, cell-based. The settings on record: Homo sapiens. This is another data set of the same source.

Calls of active or inactive are those of the source. A value given as a limit tells only on which side of the number the result lay.

Chain of Cytochrome P450 2C19 (P33261 whole entry): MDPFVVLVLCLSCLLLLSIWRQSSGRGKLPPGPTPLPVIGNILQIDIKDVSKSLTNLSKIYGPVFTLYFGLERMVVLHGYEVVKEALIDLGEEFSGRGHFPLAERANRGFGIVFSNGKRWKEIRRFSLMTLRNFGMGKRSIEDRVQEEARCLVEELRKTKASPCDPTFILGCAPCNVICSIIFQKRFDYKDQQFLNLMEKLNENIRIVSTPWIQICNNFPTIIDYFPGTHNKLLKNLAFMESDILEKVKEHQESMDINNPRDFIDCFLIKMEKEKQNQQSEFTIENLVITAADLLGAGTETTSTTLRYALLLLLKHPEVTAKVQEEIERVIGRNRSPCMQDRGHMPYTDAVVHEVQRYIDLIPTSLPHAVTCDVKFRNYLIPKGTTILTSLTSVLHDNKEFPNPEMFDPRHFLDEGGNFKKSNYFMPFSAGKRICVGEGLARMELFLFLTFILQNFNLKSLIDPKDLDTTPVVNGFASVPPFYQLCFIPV
Chain of E3 ubiquitin-protein ligase Mdm2 (Q00987 whole entry): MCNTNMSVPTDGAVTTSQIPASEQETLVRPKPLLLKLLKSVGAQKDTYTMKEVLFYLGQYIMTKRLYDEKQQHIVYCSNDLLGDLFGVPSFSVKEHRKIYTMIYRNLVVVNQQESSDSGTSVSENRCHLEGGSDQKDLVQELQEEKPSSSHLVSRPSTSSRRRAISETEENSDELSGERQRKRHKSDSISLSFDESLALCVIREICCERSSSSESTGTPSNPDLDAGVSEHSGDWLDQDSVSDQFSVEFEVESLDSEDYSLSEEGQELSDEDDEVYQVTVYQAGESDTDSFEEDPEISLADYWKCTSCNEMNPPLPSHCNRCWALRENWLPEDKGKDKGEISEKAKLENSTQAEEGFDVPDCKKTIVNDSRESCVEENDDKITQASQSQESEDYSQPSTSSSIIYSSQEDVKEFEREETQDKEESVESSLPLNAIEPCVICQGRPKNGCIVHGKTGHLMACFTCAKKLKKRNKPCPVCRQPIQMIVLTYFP

On to `Oc1nncc(-c2ccccc2)n1`, for which the values for the half-maximal activity concentration (AC50) in [1], in [2] and in data set [3] were 58.5 µM (active), 14.1 µM (inconclusive) and “inconclusive”, respectively.

In the case of `O=C1N/C(=C/c2ccc(N3CCOCC3)o2)C(=O)N1c1ccccc1`, the AC50 in [4] is > 195 µM (inactive); in data set [5], > 70 µM (inactive); in data set [7], 45.7 µM (active); in data set [8], 5.03 µM (active). In [6], the EC50 is recorded as 6.73 µM (not active).

Take `Cn1c(SCC(=O)Nc2ccc3nc(SCC(=O)c4ccc(Cl)cc4)sc3c2)nnc1-c1ccc(N)cc1`: in [9], the IC50 was 40.6 µM (active).

With `COc1ccc(C=NNC(=O)c2cc(O)c(O)c(O)c2)cc1COc1ccc(C(=O)OCC(C)C)cc1`, the CC50 in [10] is > 100 µM (inactive).

Regarding `CC1(C)c2ssc(=S)c2-c2ccccc2N1C(=O)CSC1=NCCS1`, the concentration at half-maximal activity (AC50) in data set [11] is 2.82 µM (inconclusive); in data set [14], 5.8 µM (active); in data set [2] it was 2 µM (inconclusive); in data set [3] (read-out: AC50), 0.891 µM (inconclusive). Further, the results for the concentration for half-maximal inhibition (IC50) in data set [12] and in [15] were > 100 µM (active) and 27.7 µM (active), respectively. Also, in data set [13], the concentration for a half-maximal effect (EC50) is 4.27 µM (active).

Consider `CCCCCCc1cc2cc(-c3nnc(-c4ccccc4OC)o3)c(=O)oc2cc1O`, for which the EC50 was > 20 µM (inactive) in [16] and 6.54 µM (active) in data set [20]. The half-maximal inhibitory concentration (IC50) in data set [17] was 9.41 µM (active); in data set [18], 8.48 µM (active); in [19], > 50 µM (inactive); in data set [21], 15.9 µM (active); in [22], > 56.8 µM (not active); in [23], > 20 µM (inactive). Further, the IC50 in data set [24] was > 20 µM (inactive).
